Counter-ions that a name gives are not always drawn. Like-named read-outs stand apart in the source and are kept apart here.
Legend:
[1] = Comparative single dose toxicokinetic study in dogs, 30 minutes intravenous infusion; type: in vivo, beagle dogs; conditions: for half-life / AUC(0-t) / Tmax / Cmax: beagle, dog; for half-life / AUC(0-t) / Tmax / Cmax / Tlast: plasma; for half-life: intravenous, estimable in one animal only, read-out: half-life; for AUC(0-t) / Tmax / Cmax: iv; for AUC(0-t) / Tmax / Cmax / Tlast: mean, labelled analyte; for Cmax: read-out: Cmax; for increase of systemic exposure with increasing doses, assuming dose proportionality: increasing doses of melflufen-d5 (III) infusion (1.25 and 2.5 mg/kg)
Description: A comparative single dose toxicity study in dogs was carried out, comparing melflufen-d5 (III) and melflufen to investigate the toxicokinetics of melflufen and melflufen-d5 (III) and their metabolites, desethyl-melflufen and melphalan, after a single intravenous administration of melflufen-d5 (III) or melflufen as 30 minutes infusion in the dog.
This study aimed to compare the potential acute toxicity of melflufen-d5 (III) and melflufen. The toxicokinetics of melflufen-d5 (III), melflufen and their metabolites desethyl-melflufen and melphalan were evaluated after a single intravenous administration as 30 minutes infusion in dogs.
Melflufen-d5 (III) or melflufen were given as 30 minutes infusion to male and female dogs according to the following scheme:
Blood samples were collected from peripheral vein on Day 1 at pre-dose, 15 min, 30 min (just prior to end of infusion), 40 min, 1 h, 2 h, 4 h and 6 h after the start of infusion).
Blood samples were collected into heparinized collection tubes, put in an ice-water bath and immediately centrifuged (3 minutes, 10000 g, +4° C.). The obtained plasma was divided into two aliquots, placed into pre-chilled cryovials and in a freezer at −70° C. until analysis.
Toxicokinetic Calculations Plasma toxicokinetic analyses for melflufen-d5 (III), melflufen and their metabolites, desethyl-melflufen and melphalan were performed according to standard non-compartmental approach using Phoenix WinNonlin system (v. 6.3, Certara Company, USA).
After administration, Cmax, maximum concentration, and Tmax, time at which the maximum concentration was achieved, were read as the coordinates of the highest plasma concentration of the time course. Clast, last detectable concentration, and Tlast, time of the last detectable concentration, were reported as parameters.
The area under plasma concentration vs. time curve up to the last detectable concentration, AUClast, was calculated by the linear trapezoidal rule.
t1/2,z, the half-life of the terminal phase, was calculated by linear regression analysis of the natural-log concentration vs. time curve according to the formula: […]
AUC∞ the area under plasma concentration vs. time curve up to infinite time, was calculated by adding the portion of the area calculated as Clast/λz to AUClast assuming mono-exponential decay.

[2] = test system: primary cultures of human tumour cells; conditions: panels of primary cultures of human tumour cells; cited from earlier work
[3] = 2-fold melflufen-d5 (III) dose increase (1.25 to 2.5 mg/kg), combined genders
[4] = both sexes, 1.25 mg/kg, group 2: melflufen-d5 (III) 1.25 mg/kg 30 min infusion, M + F combined
[5] = both sexes, 2.5 mg/kg, group 3: melflufen-d5 (III) 2.5 mg/kg 30 min infusion, M + F combined
[6] = both sexes, 2.5 mg/kg, group 4: melflufen 2.5 mg/kg 30 min infusion, M + F combined
[7] = female, 1.25 mg/kg, group 2: melflufen-d5 (III) 1.25 mg/kg 30 min infusion, females
[8] = female, 2.5 mg/kg, group 3: melflufen-d5 (III) 2.5 mg/kg 30 min infusion, females
[9] = female, 2.5 mg/kg, group 4: melflufen 2.5 mg/kg 30 min infusion, females
[10] = male, 1.25 mg/kg, group 2: melflufen-d5 (III) 1.25 mg/kg 30 min infusion, males
[11] = male, 2.5 mg/kg, group 3: melflufen-d5 (III) 2.5 mg/kg 30 min infusion, males
[12] = male, 2.5 mg/kg, group 4: melflufen 2.5 mg/kg 30 min infusion, males
[13] = group 2: melflufen-d5 (III) 1.25 mg/kg 30 min infusion, M + F combined
[14] = group 2: melflufen-d5 (III) 1.25 mg/kg 30 min infusion, females
[15] = group 2: melflufen-d5 (III) 1.25 mg/kg 30 min infusion, males
[16] = group 3: melflufen-d5 (III) 2.5 mg/kg 30 min infusion, M + F combined
[17] = group 3: melflufen-d5 (III) 2.5 mg/kg 30 min infusion, females
[18] = group 3: melflufen-d5 (III) 2.5 mg/kg 30 min infusion, males
[19] = group 4: melflufen 2.5 mg/kg 30 min infusion, M + F combined
[20] = group 4: melflufen 2.5 mg/kg 30 min infusion, females
[21] = group 4: melflufen 2.5 mg/kg 30 min infusion, males

SMILES: N[C@@H](Cc1ccc(N(CCCl)CCCl)cc1)C(=O)N[C@@H](Cc1ccc(F)cc1)C(=O)O [desethyl-melflufen, (2S)-2-[[(2S)-2-amino-3-[4-[bis(2-chloroethyl)amino]phenyl]propanoyl]amino]-3-(4-fluorophenyl)propanoic acid]
- increase of AUClast of the metabolite with dose [1, 3]: 3.5 fold
- increase of Cmax of the metabolite with dose [1, 3]: 3.1 fold
- exposure relative to the parent compound exposure ([1]; after melflufen-d5 (III) infusion): about one-half
- half-life ([1]; 2.5 mg/kg, after melflufen 2.5 mg/kg (group 4)): 7 min
- half-life ([1]; 2.5 mg/kg, after melflufen-d5 (III) 2.5 mg/kg): 5 min
- AUC(0-t) [1, 4]: 0.0144 µM·h
- Tmax [1, 4]: 30 min
- Cmax [1, 4]: 33.2 nM
- AUC(0-t) [1, 5]: 0.0506 µM·h
- Tmax [1, 5]: 27.5 min
- Cmax [1, 5]: 102 nM
- AUC(0-t) [1, 6]: 0.0325 µM·h
- Tmax [1, 6]: 27.5 min
- Cmax [1, 6]: 71.4 nM
- average exposure to the metabolite after infusion of melflufen compared with after infusion of melflufen-d5 (III) ([1]; each at 2.5 mg/kg): lower
- AUC(0-t) [1, 7]: 0.0132 µM·h
- Tmax [1, 7]: 30 min
- Cmax [1, 7]: 30.8 nM
- AUC(0-t) [1, 8]: 0.0358 µM·h
- Tmax [1, 8]: 30 min
- Cmax [1, 8]: 70.3 nM
- AUC(0-t) [1, 9]: 0.0287 µM·h
- Tmax [1, 9]: 25 min
- Cmax [1, 9]: 60.5 nM
- increase of systemic exposure with increasing doses, assuming dose proportionality [1]: slightly more than expected
- no longer detectable after, post-dosing ([1]; labelled metabolite after 1.25-2.5 mg/kg melflufen-d5 (III) infusion): 40 to 60 min
- time of maximal plasma concentration ([1]; labelled metabolite after 1.25 and 2.5 mg/kg melflufen-d5 (III) infusion (groups 2 and 3)): 15 to 30 min
- AUC(0-t) [1, 10]: 0.0155 µM·h
- Tmax [1, 10]: 30 min
- Cmax [1, 10]: 35.6 nM
- AUC(0-t) [1, 11]: 0.0655 µM·h
- Tmax [1, 11]: 25 min
- Cmax [1, 11]: 134 nM
- AUC(0-t) [1, 12]: 0.0363 µM·h
- Tmax [1, 12]: 30 min
- Cmax [1, 12]: 82.2 nM
- Tlast [1, 13]: 0.667 h
- Tlast [1, 14]: 0.667 h
- Tlast [1, 15]: 0.667 h
- Tlast [1, 16]: 1.00 h
- Tlast [1, 17]: 1.00 h
- Tlast [1, 18]: 1.00 h
- Tlast [1, 19]: 0.945 h
- Tlast [1, 20]: 0.889 h
- Tlast [1, 21]: 1.00 h

SMILES: CCOC(=O)[C@H](Cc1ccc(F)cc1)NC(=O)[C@@H](N)Cc1ccc(N(CCCl)CCCl)cc1 [melflufen, L-Melphalanyl-4-fluoro-L-phenylalanine ethyl ester]
- AUC(0-t) [1, 6]: 0.0433 µM·h
- Tmax [1, 6]: 20 min
- Cmax [1, 6]: 144 nM
- average exposure to melflufen, fold lower than that to melflufen-d5 (III) ([1]; each at 2.5 mg/kg (group 4 vs group 3)): 2 fold
- AUC(0-t) [1, 9]: 0.0539 µM·h
- Tmax [1, 9]: 25 min
- Cmax [1, 9]: 163 nM
- AUC(0-t) [1, 12]: 0.0326 µM·h
- Tmax [1, 12]: 15 min
- Cmax [1, 12]: 124 nM
- Tlast [1, 19]: 0.500 h
- Tlast [1, 20]: 0.500 h
- Tlast [1, 21]: 0.500 h
- time of peak in plasma ([1]; melflufen infused for 30 minutes at 2.5 mg/kg (group 4)): 15 to 30 min
- efficacy, fold higher than melphalan [2]: 50 to 100 fold

SMILES: [2H]C([2H])([2H])C([2H])([2H])OC(=O)C(Cc1ccc(F)cc1)NC(=O)C(N)Cc1ccc(N(CCCl)CCCl)cc1 [melflufen-d5 (III), (^2H5)ethyl (2S)-2-[(2S)-2-amino-3-{4-[bis(2-chloroethyl)amino]phenyl}propanamido]-3-(4-fluorophenyl)propanoate hydrochloride]
- increase of exposure with the dose in terms of peak and area under the curve ([1]; 2.5 vs 1.25 mg/kg melflufen-d5 (III) (2-fold dose increase), combined gender parameters): 2.7 fold
- AUC(0-t) [1, 4]: 0.0336 µM·h
- Tmax [1, 4]: 22.5 min
- Cmax [1, 4]: 98.5 nM
- AUC(0-t) [1, 5]: 0.0902 µM·h
- Tmax [1, 5]: 22.5 min
- Cmax [1, 5]: 253 nM
- exposure after infusion of melflufen-d5 (III) compared to melflufen ([1]; equivalent doses): consistently higher
- AUC(0-t) [1, 7]: 0.0296 µM·h
- Tmax [1, 7]: 30 min
- Cmax [1, 7]: 99.3 nM
- AUC(0-t) [1, 8]: 0.0564 µM·h
- Tmax [1, 8]: 20 min
- Cmax [1, 8]: 159 nM
- increase of systemic exposure with increasing doses, assuming dose proportionality [1]: slightly more than expected
- AUC(0-t) [1, 10]: 0.0377 µM·h
- Tmax [1, 10]: 15 min
- Cmax [1, 10]: 97.7 nM
- AUC(0-t) [1, 11]: 0.124 µM·h
- Tmax [1, 11]: 25 min
- Cmax [1, 11]: 346 nM
- Tlast [1, 13]: 0.528 h
- Tlast [1, 14]: 0.50 h
- Tlast [1, 15]: 0.556 h
- Tlast [1, 16]: 0.611 h
- Tlast [1, 17]: 0.611 h
- Tlast [1, 18]: 0.611 h
- disappeared from plasma, time from start of dosing ([1]; melflufen-d5 (III) infused for 30 minutes at 1.25 and 2.5 mg/kg (groups 2 and 3)): ≤ 40 min

— US12152087B2, “Deuterated melflufen compounds” (Oncopeptides AB, priority 2018, dated 2024)
